Source: article PMC6379104 (Clinical pharmacology and therapeutics, 2018)
Where “and” joins values, the source holds several entries; their conditions need not be identical. Equal entries are not always repeated. Where two headings read alike, the source gives them in different places.

Key:
[1] = Population pharmacokinetic model of plasma disulfiram and four metabolites
[2] = tested on: latent HIV in Bcl-2-transduced primary CD4+ T cells; settings: cited from earlier work
[3] = tested on: CA-US HIV RNA; settings: following administration of vorinostat; cited from earlier work
[4] = tested on: plasma HIV RNA; settings: following administration of vorinostat; cited from earlier work
[5] = tested on: plasma HIV RNA; settings: DSF 500 mg for 14 days; cited from earlier work
[6] = clinical; settings: human, in vivo
[7] = in humans; cited from earlier work
[8] = tested on: plasma HIV RNA; type: in vivo, HIV-1
[9] = tested on: cell-associated unspliced (CA-US) HIV RNA; type: in vivo, HIV-1
[10] = tested on: cell-associated HIV DNA; settings: three consecutive days of DSF; cited from earlier work
[11] = tested on: cell-associated unspliced (CA-US) HIV RNA; settings: three consecutive days of DSF at all doses (500, 1000, 2000 mg); cited from earlier work
[12] = tested on: plasma HIV RNA; settings: three consecutive days of DSF; cited from earlier work
[13] = final PK model, estimate (RSE %)
[14] = model estimate at AUC0–72 of 2270 mg*h/L (500 mg dose group median)

CCN(CC)C(=S)SC [M2, diethyldithiocarbamate-methyl ester]
Q (flow from central compartment to periphery) [1, 13]: 0.0776 (14.0) | V (volume of distribution) [1, 13]: 0.00404 (8.0) L | Vperiph (calculated peripheral volume) [1, 13]: 28.9 (17.3) L | activation of latent HIV in vitro [2]: but not M2 (DDTC-Me), reactivated latent HIV

O=C(CCCCCCC(=O)Nc1ccccc1)NO [vorinostat]
change in CA-US HIV RNA [3]: significant increases | change in plasma HIV RNA [4]: a significant change in plasma HIV RNA was not observed

CCN(CC)C(=O)[S+](C)[O-] (stereo not drawn) [M3, S-methyl-N,N-diethylthiolcarbamate sulfoxide]
V (volume of distribution) [1, 13]: 0.0647 (15.6) L

CCN(CC)C(=S)SSC(=S)N(CC)CC [DSF, Disulfiram]
change in plasma HIV RNA [5]: transient but non-statistically significant increases | Km [6]: 0.217 µg/mL | estimated half-life [7]: about 7 hours | median change in plasma HIV RNA ([8]; by day 31, 2000 mg group): 1.17 copies/mL | median change in plasma HIV RNA ([8]; during the treatment dosing period, 500 mg group): -0.22 copies/mL | exposure-response between AUC0–72 and plasma HIV RNA ([8]; negative binomial regression models): a statistically significant exposure-response was not observed | time by which drug was completely eliminated ([1]; 3 consecutive daily doses): ≤ 72 h | BV (%) in CL/F (between-subject variability) [1, 13]: 36% and 36 (14) % | V (volume of distribution) [1, 13]: 1.29 (9.1) L | Vd ([1]; human, plasma, oral, V (volume of distribution), final PK model, estimate (RSE %)): 1.3 L | AUC50 ([9]; exposure-response of AUC0–72 on CA-US HIV RNA): 1600 µg·h/L | Emax ([9]; increase in CA-US HIV RNA): 78% | Emax (fraction increase) ([9]; increase in CA-US HIV-1 RNA, estimate (RSE %)): 78 (13.6) | potential participants achieving >90% of Emax [9, 14]: over 70% | potential participants achieving less than a third of Emax [9, 14]: 15% | potential participants achieving >98% of Emax ([9]; model estimate at AUC0–72 of 3883 mg*h/L (lowest in 1000 mg dose group)): 95% | exposure-response relationship of AUC0–72 on CA-US RNA ([9]; negative binomial PK/PD models, all three baseline values): statistically significant exposure-response relationship | change in CA-DNA [10]: no significant differences | activation of latent HIV in vitro [2]: reactivated latent HIV | change in CA-US RNA [11]: statistically significant dose-dependent increases | change in plasma HIV RNA [12]: increased, but only at day 31 and only in participants receiving the highest dose (2000 mg)

CCN(CC)C(=O)SC[C@H](NC(=O)CC[C@H](N)C(=O)O)C(=O)NCC(=O)O [M4, carbamathione]
Km (Michaelis-Menten constant, concentration at which elimination is half maximal) [1, 13]: 543 (4.3) ng/mL | V (volume of distribution) [1, 13]: 0.581 (10.3) L

CCN(CC)C(=S)S [M1, N,N-diethyldithiocarbamate]
Km (Michaelis-Menten constant, concentration at which elimination is half maximal) [1, 13]: 480 (6.2) ng/mL | V (volume of distribution) [1, 13]: 0.0906 (16.6) L | activation of latent HIV in vitro [2]: reactivated latent HIV
